Experimental data: patent publication US12295938B2, “Composition for treating castration-resistant prostate cancer, comprising quassinoids” (SAMSUNG LIFE PUBLIC WELFARE FOUNDATION, priority 2019, dated 2025)
Where two headings read alike, the source gives them in different places.

Columns and labels:
[1] = Hematobiochemical toxicity assay in 22RV1 xenograft mice; type: in vivo, mouse; settings: for ALT (ave) / AST (ave) / AST/ALT (ave) / CK (ave) / Cr (ave) / LDH (ave): mouse, in vivo
Description: Briefly, in order to analyze toxicity of bruceantin in vivo, bloods from 22RV1 xenograft […] 3 days […] and oral administration at a dose of 2 mg/kg/every 2 days (p.o.), and the results are depicted in FIG. 10 and summarized in Table 13. • ALT: Alanine transaminase • AST: Aspartate transaminase • LDH: Lactate dehydrogenase • CR: Creatinine • CPK: Creatine phosphokinase

[2] = test system: 22RV1 metastasis mouse models; type: in vivo; settings: 2 mg/kg every 2 days oral
Description: In order construct metastasis mouse models with the castration-resistant prostate cancer cell line 22RV1, the cells were subcutaneously injected into nude mice and the tumors was grown. Then, the tumors were harvested and injected into the left cardiac ventricle of nude mice to construct metastasis mouse models (see FIG. 13).
In the metastasis mouse models using the castration-resistant prostate cancer cell line 22RV1, bruceantin was analyzed for inhibitory effect on tumor metastasis and growth. In brief, the metastasis mice were monitored for inhibitory effects on tumor metastasis and growth and body weight while bruceantin was orally administered at a dose of 2 mg/kg/every 2 days thereto. The results are depicted in FIGS. 14a and 14b and Table 14.

[3] = test system: 22RV1-xenografted mouse models; type: in vivo; set-up: Tumor (ave): unit not given here; settings: for Tumor (ave): 1 mg/kg every 3 days subcutaneous
Description: (§1) While being subcutaneously injected with bruceantin at a dose of 1 mg/kg/every 3 days, 22RV1-xenografted mouse models were monitored for inhibitory effects on tumor growth and body weights.

[4] = test system: 22RV1 xenograft mouse models; type: in vivo; set-up: Tumor (ave): unit not given here; settings: 2 mg/kg every 2 days oral
Description: In mouse models xenografted with the castration-resistant prostate cancer (CRPC) cell line 22RV1, bruceantin was analyzed for inhibitory effect on tumor growth. To this end, bruceantin was orally administered at a dose of 2 mg/kg/every 2 days to 22RV1 xenograft mouse models during which inhibition effects on tumor growth and body weights were monitored. The results are depicted in FIGS. 9a and 9b and Tables 11 and 12.

[5] = mouse, in vivo; for AST/ALT (ave): sc
Description: FIG. 8b is a graph showing changes in blood AST/ALT ratio with doses of bruceantin subcutaneously injected to mice according to an embodiment of the present disclosure.
as §1

[6] = test system: 22RV1 cells; assay: MTT cell growth inhibition assay, 22RV1; type: cell-based; settings: 22RV1 cells
Description: In brief, 22RV1 cells were seeded at a density of 1×10^4 cells/well into 96-well plates and treated with each drug at 6 concentrations ranging from 5 nM to 200 nM for 72 hours. Afterwards, an MTT dye solution and a solubilization solution/stop mix were added according to an MTT assay method, followed by reading absorbance at 570 nm to analyze cell viability and IC50.

[7] = test system: RWPE-1, DU145, PC3, LNCaP, C4-2B, C4-2B-MDVR and 22RV1 cells; assay: MTT cell growth assay on normal prostate and prostate cancer cell lines; type: cell-based; settings: 1 nM to 5 nM, 72 hours; versus normal prostate cells and AR-negative prostate cancer cells
Description: Bruceantin was analyzed for inhibitory activity against cell growth of normal prostate cells (RWPE-1), AR-negative prostate cancer cells (DU145, PC3), AR-positive hormone-dependent prostate cancer cells (LNCaP, C4-2B), AR- & AR-V7-positive castration-resistant prostate cancer cells (C4-2B-MDVR and 22RV1) by an MTT assay method.
In brief, the cell lines were each seeded at a density of 1×10^4 cells/well into 96-well plates and incubated with each of the drugs at three concentrations ranging from 1 nM to 5 nM for 72 hours. Afterwards, an MTT dye solution and a solubilization solution/stop mix were added according to an MTT assay method, followed by reading absorbance at 570 nm to analyze cell viability. The data are depicted in FIG. 6.

[8] = test system: AR transcriptional activity; assay: MMTV-LUC luciferase reporter assay in 22RV1 cells, DHT+ (screening and IC50); type: cell-based; settings: Homo sapiens
Description: (§2) A library of antimalarial agents was screened using a luciferase reporter assay to measure changes in AR/AR-V7 transcriptional activity.
(§3) Screening was made primarily with 10 μM of each drug.

[9] = test system: AR-V7 transcriptional activity; assay: MMTV-LUC luciferase reporter assay in 22RV1 cells, DHT− (screening and IC50); type: cell-based
Description: as §2, §3

[10] = test system: hormone-dependent AR transcriptional activity; assay: MMTV-LUC reporter assay in LNCaP cells, hormone-dependent AR transcriptional activity; type: cell-based; settings: Homo sapiens, LNCaP, read-out: IC50 (nM) DHT+
[11] = mouse, in vivo
Description: Anatomical and histological toxicity assays were performed on livers, kidneys and spleens from the mice subcutaneously injected with bruceantin. In order to analyze in vivo toxicity of bruceantin, liver, kidney, and spleen tissues from 22RV1 xenograft mouse models were analyzed after subcutaneous injection at a dose of 1 mg/kg/every 3 days, and the results are depicted in FIGS. 11a and 11b.
Anatomical and histological toxicity assays were performed on livers, kidneys and spleens from the mice to which bruceantin had been orally administered. In order to analyze in vivo toxicity of bruceantin, liver, kidney, and spleen tissues from 22RV1 xenograft mouse models were analyzed after oral administration at a dose of 2 mg/kg/every 2 days, and the results are depicted in FIGS. 12a and 12d.

COC(=O)[C@@]12OC[C@]34[C@H]([C@@H](O)[C@@H]1O)[C@@]1(C)CC(=O)C(O)=C(C)[C@@H]1C[C@H]3OC(=O)[C@H](OC(=O)/C=C(\C)C(C)C)[C@@H]24 [Bruceantin, bruceantin]
toxicity on blood indices ([1]; compared to the control vehicle, both routes): no toxicity on blood indices
ALT (ave) ([1]; ip, 1 mg/kg): 61.2
AST (ave) ([1]; ip, 1 mg/kg): 351
AST/ALT (ave) ([1]; ip, 1 mg/kg): 6.409
CK (ave) ([1]; ip, 1 mg/kg): 180
Cr (ave) ([1]; ip, 1 mg/kg): 0.156
LDH (ave) ([1]; ip, 1 mg/kg): 1098.6
ALT (ave) ([1]; po, 2 mg/kg): 72
AST (ave) ([1]; po, 2 mg/kg): 263.4
AST/ALT (ave) ([1]; po, 2 mg/kg): 3.658
CK (ave) ([1]; po, 2 mg/kg): 247.5
Cr (ave) ([1]; po, 2 mg/kg): 0.138
LDH (ave) ([1]; po, 2 mg/kg): 1456.8
inhibitory effect on tumor metastasis and growth [2]: inhibit metastatic tumor growth and the number of metastases
Tumor (ave) ([3]; Day 0): 57.5
Tumor (ave) ([3]; Day 3): 81.7
Tumor (ave) ([3]; Day 6): 161.6
Tumor (ave) ([3]; Day 9): 250.2
Tumor (ave) ([3]; Day 12): 428.0
Tumor (ave) ([3]; Day 15): 676.3
Tumor (ave) ([3]; Day 18): 895.7
Tumor (ave) ([3]; Day 21): 938.5
Tumor (ave) ([3]; Day 24): 1005.7
inhibition of in vivo tumor growth of CRPC cells ([3]; nude mice, 22RV1 cells, dose of 1 mg/kg): effectively inhibit in vivo tumor growth
inhibition of tumor growth [4]: effectively inhibit tumor growth
Tumor (ave) ([4]; Day 0): 73.0453
Tumor (ave) ([4]; Day 3): 89.5358
Tumor (ave) ([4]; Day 5): 75.35
Tumor (ave) ([4]; Day 7): 88.811
Tumor (ave) ([4]; Day 9): 157.6571
Tumor (ave) ([4]; Day 11): 189.9515
Tumor (ave) ([4]; Day 13): 256.5573
Tumor (ave) ([4]; Day 15): 348.6721
Tumor (ave) ([4]; Day 17): 485.1394
Tumor (ave) ([4]; Day 19): 567.0807
Tumor (ave) ([4]; Day 21): 616.549
effect on weights of the mice ([5]; 1 mg/kg): no effect on weights of the mice
hepatotoxicity ([5]; 1 mg/kg): nor to cause hepatotoxicity
AST/ALT (ave) ([5]; 0.5 mg/kg): 2.5
AST/ALT (ave) ([5]; 1 mg/kg): 3.3
fold more potent inhibitory activity against CRPC cell growth than ailanthone ([6]; versus ailanthone): 16 fold
IC50 ([6]; Homo sapiens, MTT, 72 hours, read-out: IC50 (22RV1 cell growth)): 2.07 nM
specificity of cell growth inhibition [7]: inhibitory activity specifically against AR- and AR-V7-positive prostate cancer cells
activity at 0.1 µM ([8]; 0.1 uM, with DHT, control = 100): 4 ± 0.5%
activity at 1 µM ([8]; 1 uM, with DHT, control = 100): 4.4 ± 0.3%
activity at 10 µM ([8]; 10 uM, with DHT, control = 100): 3.9 ± 0.4%
IC50 ([8]; AR transcriptional activity): 2.08 nM
activity at 0.1 µM ([9]; Homo sapiens, 22RV1 cells, 0.1 uM, no DHT, control = 100): 13.4 ± 2.5%
activity at 1 µM ([9]; Homo sapiens, 22RV1 cells, 1 uM, no DHT, control = 100): 15.2 ± 1.6%
activity at 10 µM ([9]; Homo sapiens, 22RV1 cells, 10 uM, no DHT, control = 100): 16.4 ± 2.3%
IC50 ([9]; Homo sapiens, 22RV1 cells, AR-V7 transcriptional activity): 3.14 nM
potency as inhibitor of AR/AR-V7 transcriptional activity compared with ailanthone ([9]; in both CRPC 22RV1 cells and androgen-dependent LNCaP cells): more potent inhibitors against AR/AR-V7 transcriptional activity
IC50 [10]: 2.05 nM
morphological and histological changes in liver, kidney, spleen ([11]; po, 2 mg/kg): no morphological and histological changes (toxicity)
morphological and histological changes in liver, kidney, spleen ([11]; sc, 1 mg/kg): no morphological and histological changes (toxicity)
